Legend:
human recombinant HDAC1 = target: T1, human recombinant HDAC1 (Homo sapiens, UniProt Q13547); assay: Fluorogenic HDAC enzyme inhibition assay (ZMAL substrate), HDAC1; type: biochemical
T1 construct: purchased BPS Bioscience Inc. 50051
Protocol: First, predilutions (100-fold final assay concentration) of test compounds or reference inhibitors were prepared. To this end, 3-fold serial dilutions of the respective DMSO stock solutions were prepared in DMSO using clear V-bottom 96-well microplates (Greiner Bio-One, Greiner AG, Kremsmünster, Austria). Predilutions designated for photolysis were irradiated for 10 min using the UV reactor described above. […] Next, 5.0 µL of these serial dilutions in assay buffer were transferred into 96-well microplates (OptiPlate-96 Black, PerkinElmer, Waltham, MA, USA). […] Fluorescence (excitation: 355 nm, emission: 460 nm) was measured using a FLUOstar OPTIMA microplate reader (BMG LABTECH GmbH, Ortenberg, Germany). IC50 values were determined by generating normalized dose–response curves using the built-in “log(inhibitor) vs. response (three parameters)” equation provided by GraphPad Prism (GraphPad Prism 9.0, San Diego, CA, USA). All compounds were tested in duplicates; reported mean IC50 values, including standard deviation, were calculated from at least two independent experiments.

[1] = test system: caspase 3/7 in A2780 cells; assay: Caspase-Glo 3/7 assay; type: cell-based, human; conditions: A2780, 0.5 µM, 24 h
Protocol: A2780 cells (8000 cells/well) were seeded in white sterile 96-well plates (ThermoFisher Scientific, Waltham, MA, USA, #136102). Dilutions (500 µM) in DMSO were prepared from the respective stock solutions in DMSO (10 mM). Predilutions used for photolysis experiments were irradiated in clear U-bottom 96-well microplates (Greiner Bio-One, Greiner AG, Kremsmünster, Austria) for 10 min in the UV reactor described above. Vehicle control (DMSO) or compounds, at a concentration of 0.5 µM, were added to the cells. The cells were then incubated for 24 h under standard culture conditions. The final volume was 100 µL, and the final DMSO concentration was 0.1%. After 24 h, cells were subsequently incubated with Caspase-Glo 3/7 substrate (Promega, Madison, WI, USA, #G8091) for 1 h at 25 °C, according to the manufacturer´s protocol. Luminescence was detected at 25 °C using a Spark microplate reader (Tecan Group AG, Maennedorf, Swiss). Two independent experiments were performed in triplicates.
GraphPad Prism (GraphPad Software, San Diego, CA, USA) was used to perform statistical analysis. Normality of the data was assessed using Shapiro–Wilk’s and Kolmogorov–Smirnov tests. To determine statistical differences between means, a one-way analysis of variance (ANOVA) was performed. If the difference was significant (p < 0.05), the mean of each column was compared to the mean of the control and corrected for multiple comparisons using Dunnett’s post-hoc test. Differences were considered statistically significant at * p < 0.05, ** p < 0.01, *** p < 0.001.

A2780 cells = assay: Annexin V/PI apoptosis assay (flow cytometry); type: cell-based, human; conditions: A2780, 0.5 µM, 48 or 72 h
Protocol: A2780 cells (4 × 10^4 cells/mL) were seeded in 6-well plates (Starlab GmbH, Hamburg, Germany) and allowed to attach. First, dilutions (500 µM) in DMSO were prepared from the respective stock solutions in DMSO (10 mM). Predilutions for photolysis experiments were irradiated in clear U-bottom 96-well microplates (Greiner Bio-One, Greiner AG, Kremsmünster, Austria) for 10 min in the UV reactor described above. Subsequently, vehicle control (DMSO) or compounds, at a concentration of 0.5 µM, were added to the cells and incubated for 48 h and 72 h, respectively. The final volume was 3 mL, and the final DMSO concentration was 0.1%. Staining was performed in triplicate in two separate experiments using annexin V and propidium iodide and analyzed by flow cytometry (Guava® easyCyte^TM, Luminex, Austin, TX, USA), according to the manufacturer’s protocol (BioLegend, San Diego, CA, USA).
Results were expressed as mean with standard deviation (SD). Statistical analysis was performed using GraphPad Prism (GraphPad Software, San Diego, CA, USA). Normality of the data was analyzed using the Shapiro–Wilk’s test. Statistical significance was assessed using one-way analysis of variance (ANOVA) with Tukey’s multiple comparison test. Differences were considered statistically significant at * p < 0.05, ** p < 0.01, *** p < 0.001.

MV-3 cell line = assay: MTT cell viability assay, MV-3; type: cell-based
Protocol: The amelanotic melanoma cell line MV-3 was obtained from EPO GmbH Berlin-Buch. The human ovarian carcinoma cell line A2780 was obtained from the European Collection of Cell Cultures (ECACC, Salisbury, UK). The cell lines were cultivated in RPMI 1640 medium supplemented with 10% fetal bovine serum and 50 U/mL penicillin and 50 µg/mL streptomycin and incubated at 37 °C under humidified air with 5% CO2 to 80–90% confluency before being used in further assays.
For this, 200-fold dilution series of the compounds of the respective stock solutions in DMSO (10 mM) were prepared in DMSO using clear U-bottom 96-well microplates (Greiner Bio-One, Greiner AG, Kremsmünster, Austria). Predilutions intended for photolysis experiments were irradiated for 10 min in the UV reactor described above. Thereafter, all predilutions were further diluted 1:200 in medium and provided in clear sterile F-bottom 96-well plates (Starlab GmbH, Hamburg, Germany). MV-3 cells were added at a density of 3000 cells/well and A2780 cells at a density of 8000 cells/well. The cells were added directly and without prior attachment. Final volume was 200 µL, and the final DMSO concentration was 0,5%. After 72 h, 40 µL MTT (3-(4,5-dimethylthiazol-2-yl)-2,5-diphenyltetrazolium bromide; BioChemica, Applichem GmbH, Darmstadt, Germany ) solution (5 mg/mL in phosphate-buffered saline) was added to determine cell survival. The formazan dye was dissolved in DMSO (Sigma-Aldrich, Steinheim, Germany) after 1 h, and absorbance was measured at 570 nm and 690 nm using a Multiskan microplate photometer (Thermo Fisher Scientific, Waltham, MA, USA). Concentration-effect curves were generated using the four-parameter logistic equation (GraphPad Prism 9.0, San Diego, CA, USA), and mean IC50 values were determined by nonlinear regression based on at least three distinct experiments in duplicates.

T1 sequence (Q13547 whole entry): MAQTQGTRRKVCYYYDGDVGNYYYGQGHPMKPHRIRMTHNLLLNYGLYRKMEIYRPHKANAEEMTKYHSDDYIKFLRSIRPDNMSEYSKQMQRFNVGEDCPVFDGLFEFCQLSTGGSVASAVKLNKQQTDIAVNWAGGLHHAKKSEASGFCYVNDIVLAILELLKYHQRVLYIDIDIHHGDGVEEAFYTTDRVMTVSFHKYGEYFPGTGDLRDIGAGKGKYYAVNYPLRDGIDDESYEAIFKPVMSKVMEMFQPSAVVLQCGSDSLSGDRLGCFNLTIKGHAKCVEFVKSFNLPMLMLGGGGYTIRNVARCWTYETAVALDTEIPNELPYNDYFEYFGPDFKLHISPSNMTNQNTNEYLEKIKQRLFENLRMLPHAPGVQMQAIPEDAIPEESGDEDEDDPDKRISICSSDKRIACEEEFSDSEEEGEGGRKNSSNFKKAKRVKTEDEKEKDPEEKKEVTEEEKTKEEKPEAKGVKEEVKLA

| IC50 (human recombinant HDAC1; without UV irradiation) [nM] | IC50 (human recombinant HDAC1; after UV irradiation (365 nm, 10 min)) [nM] | increase of HDAC1 inhibition upon irradiation with UV light (human recombinant HDAC1; irradiated vs non-irradiated) [fold] | Compound | activation of caspase 3/7 ([1]; without UV) | early and late apoptosis vs DMSO control (A2780 cells; without UV irradiation) | IC50 (MV-3 cell line; MV-3, light or radiation study, MTT, 72 h, without UV irradiation) [nM] | activation of caspase 3/7 ([1]; + UV (365 nm, 10 min)) | early and late apoptosis vs DMSO control (A2780 cells; after light activation) | IC50 (MV-3) (MV-3 cell line; MTT, 72 h, without UV irradiation) | IC50 (MV-3 cell line; MV-3, light or radiation study, MTT, 72 h, after UV irradiation (365 nm, 10 min)) [nM] | inhibition at 25 µM (MV-3 cell line; MV-3, light or radiation study, at 25 µM, without UV irradiation) [%] |
| --- | --- | --- | --- | --- | --- | --- | --- | --- | --- | --- | --- |
| 12.7 ± 0.7 | – | – | CN(C)c1ccc(C(=O)N(CC(=O)NCc2ccccc2)Cc2ccc(C(=O)NO)cc2)cc1 [I, N-[2-(benzylamino)-2-oxoethyl]-4-(dimethylamino)-N-[4-(hydroxycarbamoyl)-benzyl]-benzamide] | significant activation of caspase 3/7 | significant increase in early and late apoptotic cells | 616 ± 161 | – | – | – | – | – |
| 824 ± 32.2 | 6.8 ± 1.2 | 121 | COc1cc(CONC(=O)c2ccc(CN(CC(=O)NCc3ccccc3)C(=O)c3ccc(N(C)C)cc3)cc2)c([N+](=O)[O-])cc1OC [pc-I, N-[2-(Benzylamino)-2-oxoethyl]-N-(4-{[(4,5-dimethoxy-2-nitrobenzyl)oxy]carbamoyl}benzyl)-4-(dimethylamino)benzamide] | inactive | no significant increase in early and late apoptosis | – | significant activation of caspase 3/7 | increased apoptosis levels which were comparable to compound I | n.e. ^b (n.e— no effect: <25% inhibition at 25 µM) | 727 ± 133 | < 25 |
